Reference: patent US7790769B2, “Merocyanine derivatives” (Ciba Corporation, priority 2005, dated 2010)

Test: Solubility behaviour in water and cosmetic solvents/oils
Type: physicochemical
Details: for Solubility behaviour [%], Cyclomethicone: solvent: Cyclomethicone; for Solubility behaviour [%], Finsolve TN: solvent: Finsolve TN; for Solubility behaviour [%], Jojoba Oil: solvent: Jojoba Oil; for Solubility behaviour [%], Mineral Oil: solvent: Mineral Oil; for Solubility behaviour [%], Mygliol: solvent: Mygliol; for Solubility behaviour [%], Polydecene: solvent: Polydecene; for Solubility behaviour [%], Propyleneglycol: solvent: Propyleneglycol; for Solubility behaviour [%], (Water): solvent: water

Row | Solubility behaviour [%], Cyclomethicone [%] | Solubility behaviour [%], Finsolve TN [%] | Solubility behaviour [%], Jojoba Oil [%] | Solubility behaviour [%], Mineral Oil [%] | Solubility behaviour [%], Mygliol [%] | Solubility behaviour [%], Polydecene [%] | Solubility behaviour [%], Propyleneglycol [%] | Solubility behaviour [%], (Water) [%] | SMILES
1 | 0.540 | >50 | >50 | 1.514 | >50 | 0.734 | 0.766 | 0.000 | CCCCC(CC)CN(CC(CC)CCCC)C1=CC(=C(C#N)C#N)CCC1 (stereo not shown)
2 | 0.509 | >5 | 2.470 | 0.569 | >5 | 0.367 | 0.361 | 0.000 | CCCCC(CC)CN(CC(CC)CCCC)C1=CC(=C(C#N)C#N)CC(C)(C)C1 (stereo not shown)
